Assay: Quantification of garlic-derived metabolites in human urine after ingestion of 3 g raw garlic (SIDA, SAFE, HRGC-MS / HRGC-GC-MS)
Format: in vivo
Details: for metabolite concentration in urine / metabolite concentration in urine, creatinine-normalized: 3 g raw garlic
From the text: Human urine samples were obtained from 18 volunteers (age 22–38 years, mean 27 years; 11 females, 7 males); thereby, one volunteer conducted the whole experimental series twice. At the time of examination, volunteers reported no known illness that might have potentially influenced the metabolism or the excretion of urine. The test persons were instructed to avoid foods that were rich in sulfur-containing substances at the testing day as well as 2 days preceding the testing day, namely garlic, onion, wild garlic, chives, cabbage, and leek, and were only allowed to consume the garlic sample provided in the course of the experiments. Additionally, subjects were asked to keep records of the food (including food supplements) and beverages they consumed during these 3 testing days. Generally, the overall panelists' requirements were in accordance with our previous studies ([5], [16]).
On the sampling day, the outer garlic cloves of a whole garlic bulb were peeled and cut into ~3 mm cubes by using a garlic cutter (Genius GmbH, Limburg/Lahn, Germany). Subsequently these cubes were thoroughly mixed and aliquoted into 3 g portions. Three to four test persons conducted the experiment at the same day. Each test person was asked to ingest a garlic portion of 3 g. In total, eight consecutive urine samples were provided by each test person, comprising one whole urine set. The samples were collected in sterile brown glass bottles, with sampling times as follows: one sample was provided directly prior to garlic consumption. The series of the second to eighth sample was then obtained at about 0.5, 1, 2, 4, 6, 8, and 24 h after garlic consumption, respectively. Between the first urine sample (prior to garlic consumption) and the seventh urine sample (8 h after garlic consumption) test persons only spent urine at the specific time points mentioned before. Another sample was provided at the next morning (24 h after garlic consumption). Between the samples provided 8 and 24 h after garlic consumption no urine was collected. All samples were immediately placed into a −80°C freezer and were kept frozen until further analysis.
The samples of each set were termed according to their sampling time. The following list provides the time intervals that are related to the respective sample name: • - pre: before garlic consumption • - 0.5 h post: 0.4–0.8 h after garlic consumption • - 1 h post: 0.9–1.3 h after garlic consumption • - 2 h post: 1.8 h−2.2 h after garlic consumption • - 4 h post: 3.8–4.4 h after garlic consumption • - 6 h post: 5.8–6.4 h after garlic consumption • - 8 h post: 7.8–8.4 h after garlic consumption • - 24 h post: 23.8–25.6 h after garlic consumption
A creatinine kit (Labor+Technik Eberhard Lehmann GmbH, Berlin, Germany) was used to determine the creatinine content in each urine sample. The determination principle of this kit is based on the reaction of creatinine with picric acid under basic conditions (Jaffé reaction). The formed complex was detected photometrically at a wavelength of 492 nm.
For quantification purposes, the deuterated standards ^2H3-AMS, ^2H3-AMSO, and ^2H3-AMSO2 were added to the sample and stirred for 10 min. Subsequently, DCM was added in a ratio of 1:2 (DCM/human urine; v/v) and this solution was stirred for further 30 min at room temperature. To isolate the volatile fraction from the urine samples we then applied SAFE-distillation ([17]), thereby distilling the respective samples at 50°C. After completion of the distillation process, 10 mL of DCM were applied in each case to rinse the SAFE apparatus and to ensure complete transition of the volatile compounds. This process was repeated with another 10 mL of DCM. After thawing, the obtained aqueous distillate phase was extracted three times with 25 mL DCM. The organic phases were combined, dried over anhydrous Na2SO4 and concentrated to a total volume of 100 μL by means of Vigreux distillation and subsequent micro-distillation at 50°C. […]

Q: With C=CCS(C)(=O)=O [AMSO2, allyl methyl sulfone] as the compound, how does the “concentration in urine compared with human milk” value (3 g raw garlic in both studies, milk data ref 20) read?
A: Its value is “about twice as high”.

Q: What about the “metabolite concentration in urine” value (U I, 0.5 h post (0.55 h)) of the same compound?
A: The value was 41.7 µg/kg.

Q: And the “metabolite concentration in urine, creatinine-normalized” value (U I, 0.5 h post (0.55 h))?
A: The value was 5.8 µg/mmol creatinine.

Q: What about the “metabolite concentration in urine” value (U I, 1 h post (1.03 h)) of the same compound?
A: The value was 98.5 µg/kg.

Q: What about the “metabolite concentration in urine, creatinine-normalized” value (U I, 1 h post (1.03 h)) of the same compound?
A: Its value is 106.3 µg/mmol creatinine.

Q: And the “metabolite concentration in urine” value (U I, 2 h post (2.05 h))?
A: Its value is 138.8 µg/kg.

Q: What about the “metabolite concentration in urine, creatinine-normalized” value (U I, 2 h post (2.05 h)) of the same compound?
A: Its value is 68.4 µg/mmol creatinine.

Q: And the “metabolite concentration in urine” value (U I, 4 h post (4.05 h))?
A: The value was 172.3 µg/kg.

Q: What about the “metabolite concentration in urine, creatinine-normalized” value (U I, 4 h post (4.05 h)) of the same compound?
A: Its value is 19.6 µg/mmol creatinine.

Q: What about the “metabolite concentration in urine” value (U I, 6 h post (6.05 h)) of the same compound?
A: Its value is 170.7 µg/kg.

Q: What about the “metabolite concentration in urine, creatinine-normalized” value (U I, 6 h post (6.05 h)) of the same compound?
A: The value was 18.6 µg/mmol creatinine.

Q: And the “metabolite concentration in urine” value (U I, 8 h post (8.05 h))?
A: Its value is 119.9 µg/kg.

Q: And the “metabolite concentration in urine, creatinine-normalized” value (U I, 8 h post (8.05 h))?
A: Its value is 16.3 µg/mmol creatinine.

Q: What about the “metabolite concentration in urine” value (U I, 24 h post (25.55 h)) of the same compound?
A: The value was 5.6 µg/kg.

Q: What about the “metabolite concentration in urine, creatinine-normalized” value (U I, 24 h post (25.55 h)) of the same compound?
A: Its value is 0.9 µg/mmol creatinine.

Q: And the “metabolite concentration in urine” value (U I, pre (-0.03 h))?
A: The value was “< LOD^3”.

Q: And the “metabolite concentration in urine, creatinine-normalized” value (U I, pre (-0.03 h))?
A: Its value is “< LOD^3”.

Q: And the “metabolite concentration in urine” value (U II, 0.5 h post (0.50 h))?
A: The value was 32.4 µg/kg.

Q: What about the “metabolite concentration in urine, creatinine-normalized” value (U II, 0.5 h post (0.50 h)) of the same compound?
A: The value was 3.0 µg/mmol creatinine.

Q: What about the “metabolite concentration in urine” value (U II, 1 h post (1.00 h)) of the same compound?
A: Its value is 68.0 µg/kg.

Q: And the “metabolite concentration in urine, creatinine-normalized” value (U II, 1 h post (1.00 h))?
A: The value was 26.1 µg/mmol creatinine.

Q: And the “metabolite concentration in urine” value (U II, 2 h post (2.00 h))?
A: Its value is 62.1 µg/kg.

Q: What about the “metabolite concentration in urine, creatinine-normalized” value (U II, 2 h post (2.00 h)) of the same compound?
A: Its value is 61.0 µg/mmol creatinine.

Q: What about the “metabolite concentration in urine” value (U II, 4 h post (4.00 h)) of the same compound?
A: Its value is 75.1 µg/kg.

Q: What about the “metabolite concentration in urine, creatinine-normalized” value (U II, 4 h post (4.00 h)) of the same compound?
A: Its value is 13.8 µg/mmol creatinine.

Q: What about the “metabolite concentration in urine” value (U II, 6 h post (6.00 h)) of the same compound?
A: Its value is 61.7 µg/kg.

Q: And the “metabolite concentration in urine, creatinine-normalized” value (U II, 6 h post (6.00 h))?
A: Its value is 6.8 µg/mmol creatinine.

Q: What about the “metabolite concentration in urine” value (U II, 8 h post (8.00 h)) of the same compound?
A: The value was 41.3 µg/kg.

Q: And the “metabolite concentration in urine, creatinine-normalized” value (U II, 8 h post (8.00 h))?
A: Its value is 4.9 µg/mmol creatinine.

Q: What about the “metabolite concentration in urine” value (U II, 24 h post (24.12 h)) of the same compound?
A: The value was 1.9 µg/kg.

Q: What about the “metabolite concentration in urine, creatinine-normalized” value (U II, 24 h post (24.12 h)) of the same compound?
A: The value was 0.1 µg/mmol creatinine.

Q: And the “metabolite concentration in urine” value (U II, pre (-0.13 h))?
A: The value was “< LOD^3”.

Q: And the “metabolite concentration in urine, creatinine-normalized” value (U II, pre (-0.13 h))?
A: The value was “< LOD^3”.

Q: What about the “metabolite concentration in urine” value (U III, 0.5 h post (0.53 h)) of the same compound?
A: The value was 41.9 µg/kg.

Q: And the “metabolite concentration in urine, creatinine-normalized” value (U III, 0.5 h post (0.53 h))?
A: The value was 24.9 µg/mmol creatinine.

Q: And the “metabolite concentration in urine” value (U III, 1 h post (1.07 h))?
A: Its value is 83.3 µg/kg.

Q: And the “metabolite concentration in urine, creatinine-normalized” value (U III, 1 h post (1.07 h))?
A: Its value is 117.5 µg/mmol creatinine.

Q: And the “metabolite concentration in urine” value (U III, 2 h post (2.18 h))?
A: The value was 145.2 µg/kg.

Q: What about the “metabolite concentration in urine, creatinine-normalized” value (U III, 2 h post (2.18 h)) of the same compound?
A: The value was 89.7 µg/mmol creatinine.

Q: And the “metabolite concentration in urine” value (U III, 4 h post (4.35 h))?
A: The value was 168.2 µg/kg.

Q: And the “metabolite concentration in urine, creatinine-normalized” value (U III, 4 h post (4.35 h))?
A: The value was 63.4 µg/mmol creatinine.

Q: And the “metabolite concentration in urine” value (U III, 6 h post (6.35 h))?
A: Its value is 134.9 µg/kg.

Q: What about the “metabolite concentration in urine, creatinine-normalized” value (U III, 6 h post (6.35 h)) of the same compound?
A: Its value is 26.1 µg/mmol creatinine.

Q: And the “metabolite concentration in urine” value (U III, 8 h post (8.43 h))?
A: The value was 86.7 µg/kg.

Q: And the “metabolite concentration in urine, creatinine-normalized” value (U III, 8 h post (8.43 h))?
A: The value was 15.3 µg/mmol creatinine.

Q: And the “metabolite concentration in urine” value (U III, 24 h post (23.90 h))?
A: Its value is 5.6 µg/kg.

Q: What about the “metabolite concentration in urine, creatinine-normalized” value (U III, 24 h post (23.90 h)) of the same compound?
A: The value was 0.9 µg/mmol creatinine.

Q: And the “metabolite concentration in urine” value (U III, pre (-0.03 h))?
A: The value was 7.3 µg/kg.

Q: What about the “metabolite concentration in urine, creatinine-normalized” value (U III, pre (-0.03 h)) of the same compound?
A: The value was 1.3 µg/mmol creatinine.

Q: And the “metabolite concentration in urine” value (U IV, 0.5 h post (0.55 h))?
A: The value was 31.0 µg/kg.

Q: And the “metabolite concentration in urine, creatinine-normalized” value (U IV, 0.5 h post (0.55 h))?
A: The value was 6.6 µg/mmol creatinine.

Q: What about the “metabolite concentration in urine” value (U IV, 1 h post (1.05 h)) of the same compound?
A: Its value is 63.2 µg/kg.

Q: What about the “metabolite concentration in urine, creatinine-normalized” value (U IV, 1 h post (1.05 h)) of the same compound?
A: The value was 52.7 µg/mmol creatinine.

Q: What about the “metabolite concentration in urine” value (U IV, 2 h post (2.12 h)) of the same compound?
A: Its value is 82.8 µg/kg.

Q: What about the “metabolite concentration in urine, creatinine-normalized” value (U IV, 2 h post (2.12 h)) of the same compound?
A: Its value is 52.5 µg/mmol creatinine.

Q: And the “metabolite concentration in urine” value (U IV, 4 h post (4.05 h))?
A: Its value is 108.4 µg/kg.

Q: And the “metabolite concentration in urine, creatinine-normalized” value (U IV, 4 h post (4.05 h))?
A: The value was 22.3 µg/mmol creatinine.

From publication PMC6499206, “Quantification of Volatile Metabolites Derived From Garlic (Allium sativum) in Human Urine” (Frontiers in Nutrition, 2019)
